The values below come from ChEMBL document CHEMBL5380807, “Imidazo[1,2-a]Pyridine Derivatives as Novel Dual-Target Inhibitors of ABCB1 and ABCG2 for Reversing Multidrug Resistance” (J Med Chem, 2023).

Activity calls are given as the source filed them. The rule behind the calls is not given here.

Series [1] is described as follows: Cytotoxicity against human K562/A02 cells overexpressing ABCB1 assessed as decrease in cell survival rate incubated for 72 hrs by MTS assay. The class given is toxicity, cell-based. (Formazan colour is commonly taken as a measure of viable cells.)
Series [2] concerns HEK293. The series can be described thus: Reversal of ABCG2 mediated mitoxantrone resistance in human HEK293 assessed as decrease in survival rate at 1.25 to 5 uM preincubated for 1 hrs followed by mitoxantrone addition and measured after 72 hrs by SRB assay. The settings on record: dose 1.25-5 µM, time 73.0 hrs. The class given is functional, cell-based. For orientation: Sulforhodamine B stains cellular protein and so reports cell mass.

For series [3], the system named is K562. The series can be described thus: Reversal of ABCB1 mediated adriamycin resistance in human K562 assessed as decrease in survival rate at 1.25 to 5 uM preincubated for 1 hrs followed by adriamycin addition and measured after 72 hrs by MTS assay. The class given is functional, cell-based. The settings on record: dose 1.25-5 µM, time 73.0 hrs.
The nature of series [4]: Cytotoxicity against human HEK293 cells assessed as reduction in cell viability incubated for 72 hrs by SRB assay. The class given is toxicity, cell-based.
The subject of series [5] is K562/A02. As to the kind of experiment: Reversal of ABCB1 mediated adriamycin resistance in human K562/A02 overexpressing ABCB1 assessed as decrease in survival rate at 1.25 to 5 uM preincubated for 1 hrs followed by adriamycin addition and measured after 72 hrs by MTS assay. The class given is functional, cell-based. The conditions noted are these: dose 1.25-5 µM, time 73.0 hrs.

For series [6], the system named is K562/A02. The series can be described thus: Reversal of ABCB1 mediated adriamycin resistance in human K562/A02 overexpressing ABCB1 assessed as decrease in survival rate at 5 uM preincubated for 1 hrs followed by adriamycin addition and measured after 72 hrs by MTS assay. The class given is functional.
Series [7] in a line: Cytotoxicity against human K562 cells assessed as decrease in cell survival rate incubated for 72 hrs by MTS assay. The class given is toxicity, cell-based.
For series [8], the system named is HEK293. The series can be described thus: Reversal of ABCG2 mediated mitoxantrone resistance in human HEK293 overexpressing ABCG2 assessed as decrease in survival rate at 1.25 to 5 uM preincubated for 1 hrs followed by mitoxantrone addition and measured after 72 hrs by SRB assay. The settings on record: dose 1.25-5 µM, time 73.0 hrs. The class given is functional, cell-based.

A short description of series [9]: Cytotoxicity against human HEK293 cells expressing ABCG2 assessed as reduction in cell viability incubated for 72 hrs by SRB assay. The class given is toxicity, cell-based.
The subject of series [10] is K562/A02. As to the kind of experiment: Reversal of ABCB1 mediated adriamycin resistance in human K562/A02 cells overexpressing ABCB1 assessed as reduction in survival rate at 5 uM preincubated for 1 hrs followed by adriamycin addition and measured after 72 hrs by MTS assay. The class given is functional.
Series [11] deals with K562. The series can be described thus: Reversal of ABCB1 mediated adriamycin resistance in human K562 cells assessed as reduction in survival rate at 5 uM preincubated for 1 hrs followed by adriamycin addition and measured after 72 hrs by MTS assay. The class given is functional, cell-based. The settings on record: time 73.0 hrs.
Series [12] has as its system K562. The series can be described thus: Cytotoxicity against human K562 cells assessed as decrease in cell survival rate at 5 uM incubated for 72 hrs by MTS assay. The class given is toxicity, cell-based. The conditions noted are these: k562, 72 h.
The subject of series [13] is K562. The series can be described thus: Reversal of ABCB1 mediated adriamycin resistance in human K562 cells assessed as reduction in survival rate at 1 uM preincubated for 1 hrs followed by adriamycin addition and measured after 72 hrs by MTS assay. The class given is functional, cell-based. The conditions noted are these: time 73.0 hrs.
Series [14] has as its system K562/A02. The series can be described thus: Cytotoxicity against human K562/A02 cells overexpressing ABCB1 assessed as decrease in cell survival rate at 5 uM incubated for 72 hrs by MTS assay. The settings on record: k562/a02, 72 h. The class given is toxicity, cell-based.
Series [15] concerns K562/A02. As to the kind of experiment: Reversal of ABCB1 mediated adriamycin resistance in human K562/A02 cells overexpressing ABCB1 assessed as reduction in survival rate at 1 uM preincubated for 1 hrs followed by adriamycin addition and measured after 72 hrs by MTS assay. The class given is functional.

By IC50 is commonly meant the concentration needed to halve the response being measured.

`C=CCN(CC=C)CC(=O)Nc1ccc(-c2nc3ccccn3c2CN2CCN(c3ccccc3)CC2)cc1`: the 50% inhibitory concentration (IC50) at 72 h in series [1] is over 100 µM; in [4], 11.8 µM; in series [7] it was over 100 µM; in series [9] it was 18.5 µM. Besides, the outcome in series [2] and in series [3] was inactive. In addition, the outcome in series [5] and in series [8] was Active. The Activity in series [6] is on record as under 30%.
With `O=C1c2c(O)ccc(O)c2C(=O)c2c(NCCNCCO)ccc(NCCNCCO)c21` [MITOXANTRONE], the half-maximal inhibitory concentration (IC50) at 72 h is 0.04 µM in [4] and 1.72 µM in [9].
For `C=CCN(CC=C)CC(=O)Nc1ccc(-c2nc3ccccn3c2CN2CCc3cc(OC)c(OC)cc3C2)cc1`, the IC50 at 72 h is 65.2 µM in [1], 37.6 µM in [4], 45.3 µM in series [7] and 11.5 µM in series [9]. In addition, the outcome in series [2] and in series [3] was inactive. Besides, the result in series [5] and in series [8] was Active. Further, the Activity in [6] is reported as under 30%.
As for `COc1cc2c(cc1OC)CN(CC(=O)Nc1ccc(-c3nc4ccccn4c3COCc3ccc(Cl)cc3)cc1)CC2`, the result in [10] (time 73.0 hrs), in series [11], in series [13] and in [15] (time 73.0 hrs) was Active. The Activity entry in series [12] and in [14] was “Non-Toxic” each time.
`COc1cc2c(cc1OC)CN(CC(=O)Nc1ccc(-c3nc4ccccn4c3CN3CCN(c4ccc(OC(F)(F)F)cc4)CC3)cc1)CC2`: the result in series [10] (time 73.0 hrs) and in series [15] (time 73.0 hrs) was Active. Besides, the outcome in [11] and in [13] was inactive. Further, the Activity entry in [12] and in series [14] was “Non-Toxic” throughout.
On to `COc1ccc(/C=C/C(=O)Nc2ccc(-c3nc4ccccn4c3CN3CCN(c4ccccc4)CC3)cc2)cc1`, for which the IC50 at 72 h in series [1] was over 100 µM; in series [4], 21 µM; in [7], over 100 µM; in series [9], 12.4 µM. The result in series [2] and in [3] was inactive. Moreover, the outcome in series [5] and in [8] was Active. The Activity in series [6] is given as under 30%.
With `COc1cc2c(cc1OC)CN(CC(=O)Nc1ccc(-c3nc4ccccn4c3CN3CCN(c4ccccc4)CC3)cc1)CC2`, the Activity in series [10] (time 73 hrs) is given as 33%; in series [12], “Non-Toxic”; in series [14] it was “Non-Toxic”; in [15] (time 73 hrs), 59%. Further, the result in series [11], in [3] and in series [13] was inactive. For the same compound, the IC50 at 72 h in series [1] and in series [7] was over 100 µM in each case. Further, the outcome in series [5] was Active.
Consider `COc1ccc(COCc2c(-c3ccc(NC(=O)CN4CCc5cc(OC)c(OC)cc5C4)cc3)nc3ccccn23)cc1`, for which the result in [10] (time 73.0 hrs) and in series [15] (time 73.0 hrs) was Active. Besides, the result in series [11] and in series [13] was inactive. In addition, the Activity result in [12] and in series [14] was “Non-Toxic” throughout.
For the compound `COc1cc2c(cc1OC)CN(CC(=O)Nc1ccc(-c3nc4ccccn4c3CO)cc1)CC2`, the result in series [10] (time 73.0 hrs), in series [11], in [13] and in series [15] (time 73.0 hrs) was inactive. Besides, the Activity entry in series [12] and in [14] was “Non-Toxic” in each case.
Turning to `COc1cc2c(cc1OC)CN(CC(=O)Nc1ccc(-c3nc4ccccn4c3CN3CCc4cc(OC)c(OC)cc4C3)cc1)CC2`, the Activity in series [10] (time 73 hrs) is 39%; in series [12], “Non-Toxic”; in series [14], “Non-Toxic”; in series [15] (time 73 hrs) it was 61%. The outcome in [11], in [3] and in series [13] was inactive. The IC50 at 72 h in series [1] and in series [7] was over 100 µM each time. Besides, the result in series [5] was Active.
In the case of `COc1cc2c(cc1OC)CN(CC(=O)Nc1ccc(-c3nc4ccccn4c3CN(C)C)cc1)CC2`, the result in [10] (time 73.0 hrs) and in series [15] (time 73.0 hrs) was Active. The result in series [11] and in [13] was inactive. For the same compound, the Activity result in series [12] and in series [14] was “Non-Toxic” in each case.
Take `CC(=O)N1CCN(c2ccc(OCC3COC(Cn4ccnc4)(c4ccc(Cl)cc4Cl)O3)cc2)CC1` (stereo not drawn): the outcome in [2] was inactive. In addition, the result in series [8] was Active.
As for `COc1cc2c(cc1OC)CN(CC(=O)Nc1ccc(-c3nc4ccccn4c3CN3CCOCC3)cc1)CC2`, the result in series [10] (time 73.0 hrs), in [11], in series [13] and in [15] (time 73.0 hrs) was Active. In addition, the Activity entry in series [12] and in [14] was “Non-Toxic” each time.
As for `COc1cc2c(cc1OC)CN(CC(=O)Nc1ccc(-c3cn4ccccc4n3)cc1)CC2`, the outcome in series [10] (time 73.0 hrs) and in [15] (time 73.0 hrs) was Active. Moreover, the result in series [11] and in series [13] was inactive. Besides, the Activity entry in series [12] and in series [14] was “Non-Toxic” each time.
Regarding `COc1cc2c(cc1OC)CN(CC(=O)Nc1ccc(-c3nc4ccccn4c3CN3CCCCC3)cc1)CC2`, the result in series [10] (time 73.0 hrs), in series [11], in series [13] and in [15] (time 73.0 hrs) was Active. For the same compound, the Activity result in series [12] and in [14] was “Non-Toxic” throughout.
In the case of `COc1cc2c(cc1OC)CN(CC(=O)Nc1ccc(-c3nc4ccccn4c3CNCc3ccccc3)cc1)CC2`, the result in series [10] (time 73.0 hrs) and in [15] (time 73.0 hrs) was Active. Also, the result in series [11] and in series [13] was inactive. Moreover, the figures for the Activity entry in [12] and in series [14] were “Non-Toxic” and 59.82%, respectively.
With `CCN(CC)Cc1c(-c2ccc(NC(=O)CN3CCc4cc(OC)c(OC)cc4C3)cc2)nc2ccccn12`, the outcome in [10] (time 73.0 hrs) and in series [15] (time 73.0 hrs) was Active. Moreover, the result in series [11] and in series [13] was inactive. The Activity entry in series [12] and in series [14] was “Non-Toxic” each time.
Turning to `COc1cc2c(cc1OC)CN(CC(=O)Nc1ccc(-c3nc4ccccn4c3COCc3ccccc3Cl)cc1)CC2`, the outcome in series [10] (time 73.0 hrs) and in series [15] (time 73.0 hrs) was Active. In addition, the outcome in series [11] and in [13] was inactive. The Activity result in series [12] and in series [14] was “Non-Toxic” each time.
Regarding `COc1cc2c(cc1OC)CN(CC(=O)Nc1ccc(-c3nc4ccccn4c3CN3CCC(=O)CC3)cc1)CC2`, the outcome in [10] (time 73.0 hrs) and in [15] (time 73.0 hrs) was Active. The result in series [11] and in series [13] was inactive. The Activity result in [12] and in series [14] was “Non-Toxic” each time.
